Data set [1] deals with Recombinant human EGFR protein (Active) (ab155639) (Homo sapiens, UniProt P00533). In words: Microscale thermophoresis (MST) binding to EGFR. The method, then:
It is known from the literature data that the dissociation constant of this binding interaction varies from 0.2 to 8 nM [102]. […] It is recommended that the concentration of the ligand should be at least 20× higher than the expected dissociation constant. In the experiments, the final labeled EGFR concentration was 25 nM.
MST analysis was performed using a Monolith NT.115 device, excitation color—Nano-RED, excitation power—100%, medium MST power.
Recombinant human EGFR protein (Active) (ab155639) was reconstituted with 500 μL of 0.45 μm filtered distilled water. Then, 100 nM solution of EGFR was prepared by mixing 3.6 μL of protein with 96.4 μL PBS-T (PBS with 0.05% Tween20). RED-tris-NTA 2nd Generation (5 μM) was obtained by dissolving […] of dye in 50 μL PBS-T. A solution of dye in PBS-T (50 nM) was prepared by mixing 1 μL of dye with 99 μL PBS-T. A solution of the protein (95 μL) was mixed with the solution of dye (95 μL) and incubated at room temperature for 30 min. The sample was then centrifuged for 10 min at 4 °C. The final labeled protein concentration in the assay was 25 nM.
Then, 20 μL of the ligand was transferred to PCR tube 1. Subsequently, 10 μL of the solution was transferred to PCR tube 2 and mixed by pipetting; 10 μL of the solution from PCR tube 2 was transferred to PCR tube 3 and mixed by pipetting; this procedure was repeated for PCR tubes 4–16. From PCR tube 16, 10 μL of the solution was discarded. Finally, 10 μL of labeled EGFR was added to each PCR tube and mixed by pipetting. The samples were incubated for 30 min at room temperature prior to MST assays. Analyses were performed using NanoTemper Technologies (München, Germany).
(In general: Microscale thermophoresis detects binding through changes in fluorescence in a small temperature gradient.)

Data set [2] relates to Primary Dermal Fibroblasts. In words: Live/dead test (proliferation and cytotoxicity). To be noted: 100 ng/mL; for percentage of live cells (in words) / live cells: live/dead assay. The class given is cell-based. The method, then:
In the next stage of our research, the scope of biological tests was expanded to assess the safety of the found EGF fragments. Fragments 10–22, 13–19, 22–28, 26–34, 10–15, and 10–15a were selected for further study in a live/dead assay (Figure 7, Figure 8 and Figure 9).
Primary Dermal Fibroblast (ATCC, Manassas, USA) was grown in Fibroblast Basal Media supplemented with Fibroblast Growth Kit components (ATCC, Manassas, VA, USA). The cells were cultured under standard conditions (37 °C, humidified atmosphere of 5% CO2 in air). The medium was replaced every 2–3 days (75% confluence). Cells between the third and fifth passages were used in the experiment.
To evaluate proliferation and cytotoxicity, a “live/dead” test (Viability/Cytotoxicity Kit, Molecular Probes) was used. Cells were seeded at 6 × 10^4 cells/mL/well/sample in 2 mL of Fibroblast Basal Media supplemented with Fibroblast Growth Kit components (ATCC, Manassas, VA, USA). After 24 h, the medium was completely replaced. Cells in the positive control and negative control were cultured in medium containing FGF. In the remaining samples, media without FGF and with the addition of heat-inactivated serum were used. […] During the experiment, half of the medium was changed every 2 days. […] After that time, a mixture of two fluorescent dyes was used: Calcein-AM for the staining of living cells and ethidium bromide for the labeling of dead cells.
The samples were examined using an Olympus GX 71 fluorescence microscope equipped with a digital camera (DP70) (Olympus, Evident, Tokyo, Japan). The results were submitted to one-way ANOVA analysis.

Data set [3] has as its target T1, Recombinant human EGFR protein (Active) (ab155639) (human, UniProt P00533 25-645, labelled with RED-tris-NTA 2nd Generation dye).
T1 construct: epidermal growth factor receptor (EGFR, ErbB-1), human, recombinant; also called EGF receptor; ErbB-1; source: bought: Abcam (ab155639), recombinant
In words: MST; RED-tris-NTA-labelled EGFR 25 nM, ligand in a 16-step 1:1 dilution series in PBS-T, 30 min at room temperature; assay concentration of the ligand 5 mM. The conditions noted are these: both partners purified.

For data set [4], the target named is T1, Recombinant human EGFR protein (Active) …. In words: MST; RED-tris-NTA-labelled EGFR 25 nM, ligand in a dilution series in PBS-T; assay concentration of the ligand not stated for the values printed in running text. The conditions noted are these: both partners purified.
The target is the same in data set [5]. The data set is described as follows: MST; RED-tris-NTA-labelled EGFR 25 nM, ligand in a 16-step 1:1 dilution series in PBS-T, 30 min at room temperature; assay concentration of the ligand 10 μM. To be noted: both partners purified.
Data set [6] shares this target. In words: MST; RED-tris-NTA-labelled EGFR 25 nM, ligand in a 16-step 1:1 dilution series in PBS-T, 30 min at room temperature; assay concentration of the ligand 2.5 mM. To be noted: both partners purified.
Data set [7] shares this target. The data set is described as follows: MST; RED-tris-NTA-labelled EGFR 25 nM, ligand in a 16-step 1:1 dilution series in PBS-T, 30 min at room temperature; assay concentration of the ligand 500 μM. The conditions noted are these: both partners purified.
The target is the same in data set [8]. The data set is described as follows: MST; RED-tris-NTA-labelled EGFR 25 nM, ligand in a 16-step 1:1 dilution series in PBS-T, 30 min at room temperature; assay concentration of the ligand 10 mM. To be noted: both partners purified.
Data set [9] has the same target. In words: MST; RED-tris-NTA-labelled EGFR 25 nM, ligand in a 16-step 1:1 dilution series in PBS-T, 30 min at room temperature; assay concentration of the ligand 1 mM. To be noted: both partners purified.
Data set [10] has the same target. The data set is described as follows: MST; RED-tris-NTA-labelled EGFR 25 nM, ligand in a 16-step 1:1 dilution series in PBS-T, 30 min at room temperature; assay concentration of the ligand 50 μM. The conditions noted are these: both partners purified.
The target is the same in data set [11]. The data set is described as follows: MST; RED-tris-NTA-labelled EGFR 25 nM, ligand in a 16-step 1:1 dilution series in PBS-T, 30 min at room temperature; assay concentration of the ligand 141 μM. To be noted: both partners purified.
The target is the same in data set [12]. In words: MST; RED-tris-NTA-labelled EGFR 25 nM, ligand in a 16-step 1:1 dilution series in PBS-T, 30 min at room temperature; assay concentration of the ligand 350 μM. To be noted: both partners purified.
Data set [13] shares this target. In words: MST; RED-tris-NTA-labelled EGFR 25 nM, ligand in a 16-step 1:1 dilution series in PBS-T, 30 min at room temperature; assay concentration of the ligand 705 μM. The conditions noted are these: both partners purified.
Data set [14] shares this target. In words: MST; RED-tris-NTA-labelled EGFR 25 nM, ligand in a 16-step 1:1 dilution series in PBS-T, 30 min at room temperature; assay concentration of the ligand 3 mM. The conditions noted are these: both partners purified.
Data set [15] shares this target. The data set is described as follows: MST; RED-tris-NTA-labelled EGFR 25 nM, ligand in a 16-step 1:1 dilution series in PBS-T, 30 min at room temperature; assay concentration of the ligand 100 μM. The conditions noted are these: both partners purified.
For data set [16] the target is unchanged. The data set is described as follows: MST; RED-tris-NTA-labelled EGFR 25 nM, ligand in a 16-step 1:1 dilution series in PBS-T, 30 min at room temperature; assay concentration of the ligand 463 μM. The conditions noted are these: both partners purified.

The record followed here is publication PMC10855902 (International Journal of Molecular Sciences, 2024).

Like-named read-outs stand apart in the source and are kept apart here. Ends that are not written are not given here. Peptide text beside a SMILES is read from it.

On to `CSCC[C@H](NC(=O)[C@H](CS)NC(=O)[C@@H](NC(=O)CNC(=O)[C@H](CC(=O)O)NC(=O)[C@H](Cc1c[nH]cn1)NC(=O)[C@H](CC(C)C)NC(=O)[C@H](CS)NC(=O)[C@H](Cc1ccc(O)cc1)NC(=O)CNC(=O)[C@H](CC(=O)O)NC(=O)[C@@H](N)Cc1c[nH]cn1)C(C)C)C(=O)N[C@@H](Cc1ccc(O)cc1)C(=O)O` [10–22] (H-HDGYCLHDGVCMY-OH; C-terminus assumed), for which the “dissociation constants (range over the assay concentrations)” value in data set [1] (MST, range over the tested fragment concentrations, labeled EGFR 25 nM) was in the range of 0.07 to 416 µM. Besides, the “percentage of live cells (in words)” value in data set [2] (after 1 day) is given as “slightly less survivability”. For the same molecule, the live cells was determined as 99.25% in data set [2] (after 7 days) and 97.13% in [2] (after one day).
With `CC[C@H](C)[C@H](N)C(=O)N[C@@H](CCC(=O)O)C(=O)N[C@@H](C)C(=O)N[C@@H](CC(C)C)C(=O)O` [23–26] (H-IEAL-OH), the Kd in [1] (MST, assay concentration 10 mM, labeled EGFR 25 nM, read-out: Kd) came out at 5090 µM.
Take `CC(C)C[C@H](N)C(=O)N[C@@H](CC(=O)O)C(=O)N[C@@H](CCCCN)C(=O)N[C@@H](Cc1ccc(O)cc1)C(=O)N[C@@H](C)C(=O)N[C@@H](CS)C(=O)N[C@@H](CC(N)=O)C(=O)N[C@@H](CS)C(=O)N[C@H](C(=O)O)C(C)C` [26–34] (H-LDKYACNCV-OH): the “number of cells (fibroblast proliferation, in words)” value in data set [2] (after 1 day of incubation) was “more cells than in the medium with EGF”. Moreover, the “percentage of live cells (in words)” value in [2] (after 1 day) and in data set [2] (after 7 days) was “one of the highest percentages of live cells” each time.
Take “EGF: native EGF (ab9697), recombinant human EGF protein; 53-amino acid polypeptide”: the “number of cells (fibroblast proliferation, in words)” value in data set [2] (after 7 days of incubation) is recorded as “induced cell growth”.
As to H-YCLHDGV-OH [13–19], the “percentage of live cells (in words)” value in data set [2] (after 1 day) is listed as “slightly less survivability”. Moreover, the live cells in [2] (after 7 days) amounted to 99.30%; in data set [2] (after one day), 97.84%.
As for HDGYCL [10–15], the live cells came out at 99.52% in [2] (after 7 days) and 98.73% in data set [2] (after one day).
IGERCQ [38–43]: the Kd in data set [1] (MST, range over the tested fragment concentrations, labeled EGFR 25 nM, read-out: Kd (range over the assay concentrations)) lay within 0.108 to 0.709 µM.
As to QYRDL [43–47], the Kd in data set [1] was in the range of 4.93 to 125 µM. Also, the “percentage of live cells (in words)” value in data set [2] (after 7 days) is reported as “highest live percentage of cells for all tested peptides”.
Consider VVGYIGERCQYRDL [34–47], for which the Kd in [1] (MST, range over the tested fragment concentrations, labeled EGFR 25 nM, read-out: dissociation constants (range over the assay concentrations)) was 0.5 to 5.92 µM.
As to YIEALDK [22–28], the “percentage of live cells (in words)” value in data set [2] (after 1 day) is recorded as “slightly less survivability”.

B1: EGF fragment 38–43 (IGERCQ) (peptide)
peptide: IGERCQ
notes: EGF, human, residues 38-43; numbers count on: the mature protein; source: synthetic peptide (SPPS, Fmoc; crude, without preparative HPLC)
In the case of B1, the Kd is 0.157 µM in [3]; 0.1 to 1.8 µM in data set [4]; 0.709 µM in [5]; 0.108 µM in data set [6]; 0.154 µM in [7].

B2: EGF fragment 43–47 (QYRDL) (peptide)
peptide: QYRDL
notes: EGF, human, residues 43-47; numbers count on: the mature protein; source: synthetic peptide (SPPS, Fmoc; crude, without preparative HPLC)
With B2, the Kd in data set [8] came out at 125 µM; in data set [7], 4.93 µM.

B3: EGF fragment 34–47 (VVGYIGERCQYRDL) (peptide)
peptide: VVGYIGERCQYRDL
notes: EGF, human, residues 34-47; numbers count on: the mature protein; source: synthetic peptide (SPPS, Fmoc; crude, without preparative HPLC)
Take B3: the Kd in data set [9] is 0.53 µM; in [10], 5.92 µM; in [11], 4.62 µM; in data set [12], 1.21 µM; in [13], 2.17 µM.

B4: EGF fragment 10–22 (HDGYCLHDGVCMY) (peptide)
peptide: HDGYCLHDGVCMY
notes: EGF, human, residues 10-22; numbers count on: the mature protein; source: synthetic peptide (SPPS, Fmoc; crude, without preparative HPLC)
Regarding B4, the Kd in data set [9] is 35.9 µM; in data set [14] it was 416 µM; in [10] it was 0.0705 µM; in data set [15] it was 8.2 µM; in data set [16] it was 21.2 µM.
